# Experimental data as given in patent US10000469B2, “Heat shock protein 70 (hsp-70) receptor ligands” (Duke University, priority 2014, dated 2018).
# Key:
# [1] = tested on: LnCaP prostate cancer cell lines; test: Cell proliferation, LNCaP; format: cell-based
# Experimental: (§1) Cell Proliferation: Cell proliferation was determined using a Hoechst stain (Sigma, St. Louis, Mo.) to quantify DNA. 5,000 cells of the designated cell line were plated in 96 well plates and treated the next day, designated as time point 0, with the indicated concentration of the specified compound maintained for the duration of the assay. At the indicated time points the media was removed and plated frozen at −80° C. Double distilled H2O was then added and the plates were incubated at 37° C. for 1 hour. After 1 hour the plates were frozen at −80° C. After freezing the plates were thawed and Hoechst stain was diluted 1:1000 in THE buffer (10 mM Tris, 2M NaCl, 1 mM Na2EDTA). The final fluorescence was measured on the Victor X2 plate reader at 355/460 nm, and cell proliferation was determined with the formula: % Cell Proliferation=100×(Sample fluorescence−background fluorescence)/(Control fluorescence−background fluorescence).
# SkBr3 = test: Cell proliferation, SkBr3; format: cell-based; conditions: SkBr3
# Experimental: as §1
# Hsp70 = Hsp70 (Homo sapiens, UniProt P0DMV8); test: Single turnover ATPase assay; format: biochemical; conditions: presence or absence of co-chaperone Hlj1
# Hsp70, sequence (P0DMV8 whole entry): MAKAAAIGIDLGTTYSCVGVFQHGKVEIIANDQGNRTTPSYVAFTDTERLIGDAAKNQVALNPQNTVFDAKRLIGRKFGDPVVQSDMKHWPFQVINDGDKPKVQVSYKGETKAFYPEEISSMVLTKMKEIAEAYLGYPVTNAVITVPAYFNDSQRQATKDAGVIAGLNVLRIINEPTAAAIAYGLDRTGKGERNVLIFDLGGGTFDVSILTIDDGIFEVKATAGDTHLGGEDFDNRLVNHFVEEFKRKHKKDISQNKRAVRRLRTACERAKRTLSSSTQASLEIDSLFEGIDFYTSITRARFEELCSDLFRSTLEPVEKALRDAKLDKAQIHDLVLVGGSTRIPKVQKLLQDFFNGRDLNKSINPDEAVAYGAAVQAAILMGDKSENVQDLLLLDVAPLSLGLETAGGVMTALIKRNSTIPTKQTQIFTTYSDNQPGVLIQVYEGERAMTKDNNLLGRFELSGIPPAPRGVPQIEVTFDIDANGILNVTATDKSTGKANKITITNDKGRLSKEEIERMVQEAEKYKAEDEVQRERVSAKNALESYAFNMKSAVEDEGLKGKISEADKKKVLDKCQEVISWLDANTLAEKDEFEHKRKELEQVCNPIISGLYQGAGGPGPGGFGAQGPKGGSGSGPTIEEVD
# Experimental: ATPase Assay: Single turnover assays were performed as previously described [Fewell et al. (2004). Small molecule modulators of endogenous and co-chaperone-stimulated Hsp70 ATPase activity. The Journal of biological chemistry 279, 51131-51140]. Briefly, Hsp70 was incubated with ^32P-ATP and cold ATP in single turnover buffer (1M KCl, 250 mM HEPES, 110 mM MgOAc) for 30 minutes on ice. ^32P-ATP-Hsp70 complex was purified from a Nick Column-Sephadex G-50 (Amersham, Piscataway, N.J.). Glycerol was added and the complexes were stored at −80° C. To determine ATP hydrolysis, a sample was thawed and added to single turnover buffer containing Hlj1 and compound added after 60 seconds. At the specified time points an aliquot of the reaction is removed, added to stop solution (2M LiCl, 4M formic acid, 36 mM ATP) and spotted on a TLC plate. The percentage of ATP hydrolyzed to ADP and P, was then calculated.
# HS-72 in vivo MTD = conditions: wild-type mice, IP biweekly for 35 days, up to 30 mg/kg
# Experimental: HS-72 in vivo MTD and blood workup: The 5 cohorts consisted of 3 mice each given HS-72 BiW and administered IP in DMSO at 1, 5, 10, 20 and 30 mpk using female FVBs aged to 10 weeks. Body Mass was measured weekly and the mice were monitored for signs of toxicity as per MP1U standard protocol. For blood analysis, 4 mice were injected IP with HS-72 on day 1 and 4, with blood drawn on day 5. 4 mice receiving no treatment were used as controls.
# Hsp70i C306D mutant = target: T1, Hsp70i C306D mutant (Homo sapiens, UniProt P0DMV8, C306D); test: Thermofluor assay, Hsp70i C306D mutant; format: binding; conditions: ±ATP
# T1 construct: His tag (cleaved yes); made in house
# T1 sequence (P0DMV8 whole entry C306D): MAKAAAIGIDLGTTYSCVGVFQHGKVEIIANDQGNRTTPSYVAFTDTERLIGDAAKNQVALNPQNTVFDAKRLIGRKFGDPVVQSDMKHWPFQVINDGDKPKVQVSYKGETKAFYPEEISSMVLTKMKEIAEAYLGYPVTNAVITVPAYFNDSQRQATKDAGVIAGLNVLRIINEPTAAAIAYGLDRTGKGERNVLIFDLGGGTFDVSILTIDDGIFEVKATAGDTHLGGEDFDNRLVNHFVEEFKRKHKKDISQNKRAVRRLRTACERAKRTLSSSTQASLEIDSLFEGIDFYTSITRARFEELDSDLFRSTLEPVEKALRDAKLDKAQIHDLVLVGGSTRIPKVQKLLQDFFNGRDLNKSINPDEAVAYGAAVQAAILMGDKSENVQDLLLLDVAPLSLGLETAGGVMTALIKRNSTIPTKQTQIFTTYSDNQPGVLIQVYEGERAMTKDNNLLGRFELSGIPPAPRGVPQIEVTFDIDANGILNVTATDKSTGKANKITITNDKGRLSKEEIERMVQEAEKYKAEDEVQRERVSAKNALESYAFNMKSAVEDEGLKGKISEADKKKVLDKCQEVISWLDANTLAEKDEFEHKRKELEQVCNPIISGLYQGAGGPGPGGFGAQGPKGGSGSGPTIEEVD
# Experimental: Protein Purification: Plasmids were provided for human HSPA1A, HSPA8, and HSPA1A C306D. Plasmids were transformed in Rosetta competent cells and single colonies were picked from streaked LB/ampicillin/chloramphenicol plates. Cultures were grown at 37° C. for 4-6 hours, were cooled to 15° C. and expression was induced overnight with 200 uM isopropyl 1-thio-β-D-galactopyranoside. Cells were pelleted and resuspended in Ni-lysis buffer (50 mM Na2HPO4, 300 mM NaCl, 10 mM Imidazole, 0.05% Tween-20) supplemented with Complete Mini protease inhibitor tablets (Roche, Mannheim, Germany) and […], and then sonicated. The cells were again pelleted and the supernatant was incubated with complete His-Tag purification resin (Roche, Mannheim, Germany) for 5 hours at 4° C. The resin was washed with Ni-wash buffer (50 mM Na2HPO4, 300 mM NaCl, 20 mM Imidazole, 0.05% Tween-20) and eluted with Ni-elution buffer (50 mM Na2HPO4, 300 mM NaCl, 250 mM Imidazole, 0.05% Tween-20). […]
# Thermofluor Assay: SYPRO orange (Molecular Probes, Eugene, Oreg.) was diluted 1:1000 in 25 mM HEPES, 5 mM MgCl2, 10 mM KCl (pH 7.5) and purified Hsp70i, Hsc70, Hsp70i C306, or Hsp90, was then added to a final dilution of 0.04 mg/ml. […] A melt curve protocol (25° C. to 90° C., increasing 0.5° C. and a plate reading every 30 seconds) was run on a CFX384 Touch™ Real-Time PCR Detection System (BioRad). […]
# Hsp70i = Hsp70i (Homo sapiens, UniProt P0DMV8); test: Thermofluor assay, purified Hsp70i; format: binding; parameters: Full length Hsp70 (black arrow) and tryptic fragments (blue arrows); His tag (cleaved yes); made in house; conditions: for decrease of ATP bound Hsp70i Tm: in presence of ATP; for decrease of the Tm of Hsp70i: no nucleotide
# Hsp70i, sequence (P0DMV8 whole entry, the tested form may be a part): as the sequence (P0DMV8 whole entry) above
# Experimental: Protein Purification: Plasmids were provided for human HSPA1A, HSPA8, and HSPA1A C306D. Plasmids were transformed in Rosetta competent cells and single colonies were picked from streaked LB/ampicillin/chloramphenicol plates. Cultures were grown at 37° C. for 4-6 hours, were cooled to 15° C. and expression was induced overnight with 200 uM isopropyl 1-thio-β-D-galactopyranoside. Cells were pelleted and resuspended in Ni-lysis buffer (50 mM Na2HPO4, 300 mM NaCl, 10 mM Imidazole, 0.05% Tween-20) supplemented with Complete Mini protease inhibitor tablets (Roche, Mannheim, Germany) and […], and then sonicated. The cells were again pelleted and the supernatant was incubated with complete His-Tag purification resin (Roche, Mannheim, Germany) for 5 hours at 4° C. The resin was washed with Ni-wash buffer (50 mM Na2HPO4, 300 mM NaCl, 20 mM Imidazole, 0.05% Tween-20) and eluted with Ni-elution buffer (50 mM Na2HPO4, 300 mM NaCl, 250 mM Imidazole, 0.05% Tween-20). The elution was then incubated with tobacco etch virus protease overnight at 4° C. The following day the elution was incubated with the γ-phosphate ATP sepharose resin for 30 minutes at 4° C. Next the resin was washed with ATP-wash buffer (50 mMTris-HCl, 60 mM MgCl2, 60 mM KCl, 10 mM Citrate) supplemented with 1 mM DTT and then ATP-wash buffer supplemented with 2 mM ATP was added to the resin to elute the protein. The final elutions were concentrated in Amicon Ultra-15 Centrifugal Filter Units (EMD Millipore, Billerica, Mass.) and buffer exchanged into 25 mM HEPES, 5 mM MgCl2, 10 mM KCl (pH 7.5) and stored at −80° C. until use.
# Thermofluor Assay: SYPRO orange (Molecular Probes, Eugene, Oreg.) was diluted 1:1000 in 25 mM HEPES, 5 mM MgCl2, 10 mM KCl (pH 7.5) and purified Hsp70i, Hsc70, Hsp70i C306, or Hsp90, was then added to a final dilution of 0.04 mg/ml. Where indicated 0.001% or 0.01% Triton X-100 (Sigma) was also added. The indicated compound or DMSO was then added at the specified concentration and each sample was added as 5 replicates to a 384 well plate (BioRad, Hercules, Calif.). A melt curve protocol (25° C. to 90° C., increasing 0.5° C. and a plate reading every 30 seconds) was run on a CFX384 Touch™ Real-Time PCR Detection System (BioRad). To determine the midpoint of the protein unfolding transition or Tm, GraphPad Prisim4 (La Jolla, Calif.) was used to normalize the melt curve and to calculate the first derivate of the melt curve, with the steepest point of the slope being the Tm.
# NF639 = test: Cell proliferation, NF639; format: cell-based, mouse
# Experimental: as §1
structure (smiles),measurement,setting,value
"CCCn1c(NC(=O)[C@H]2CCCN(c3cnccn3)C2)nc2ccccc21 [HS-72, (S)—N-(1-propyl-1H-benzo[d]imidazol-2-yl)-1-(pyrazin-2-yl)piperidine-3-carboxamide]",cell proliferation,[1],inhibits proliferation
same,cell proliferation,SkBr3,inhibits proliferation
same,"cell proliferation, combination with HS-10",SkBr3,additive effect
same,"cell proliferation, combination with HS-10",SkBr3; listed as HS72,synergism
same,effect on Hsp70 ATPase activity,Hsp70,does not reduce
same,tolerability in dose escalation,HS-72 in vivo MTD,"no adverse events, reduction in body weight, or altered behavior"
same,effect on Tm of the Hsp70i C306D mutant,Hsp70i C306D mutant,does not change
same,decrease of ATP bound Hsp70i Tm,Hsp70i; 10 uM,0.5 °C
same,decrease of the Tm of Hsp70i,Hsp70i; 10 uM,0.1 °C
same,decrease of ATP bound Hsp70i Tm,Hsp70i; 100 uM,1 °C
same,decrease of the Tm of Hsp70i,Hsp70i; 100 uM,0.5 °C
same,Tm of Hsp70 with compound alone vs. compound plus detergent,"Hsp70i; 100 uM, 0.001% or 0.01% Triton",no difference
same,effect on Hsp70i Tm in combination with PES,Hsp70i; absence or presence of ATP,no synergistic or additive effect
same,effect on Hsp70i Tm in combination with VER,Hsp70i; absence or presence of ATP,no observed synergistic or additive effect
same,effect on Tm of Hsp70i,Hsp70i; compound alone,decreased in a dose dependent manner
same,effect on Tm of ADP Hsp70i,Hsp70i; in presence of ADP,does not change
same,"cell proliferation, combination with HS-10",NF639,synergistic inhibition
same,cell proliferation,"NF639; 25 uM and 50 uM at 24, 48, and 72 hours",inhibits proliferation
